Eleven compounds from patent publication US20240101570A1 (AMGEN INC., priority 2020, published 2024) can be followed below.

SMILES strings stand for the structures.

One test deals with HCT116 MTAP null cells. The experiment in a line: HCT116 MTAP null cell proliferation / viability (CellTiter-Glo, 6 days). It is filed as cell-based. As to conditions: HCT116-MTAP null, 144 h, HCT116 MTAP null cells, 6 days, CellTiter-Glo; read-out: HCT-116 MTAP null IC50. The procedure, abridged: (§1)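 Viability read by CellTiter-Glo after 6-day compound exposure of MTAP-null and wild-type HCT116 cells grown in RPMI 1640 with 10% FBS. Dosing used 1:3 steps from 1 or 10 μM (8-9 points) or 1:2 steps from 10 or 50 μM (22 points); IC50 taken where fitted curve crosses 50% of control.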

The next test deals with HCT116 WT cells. Kind of test: HCT116 WT cell proliferation / viability (CellTiter-Glo, 6 days). It is filed as cell-based. As to conditions: Homo sapiens, HCT-116, 144 h, HCT116 WT cells, 6 days, CellTiter-Glo; read-out: HCT-116 WT IC50. The procedure, abridged: as §1
(Cellular ATP, detected with luciferase, serves as a proxy for viable cell number.)

Broadly, the IC50 is the concentration that gives 50% inhibition. For `CN(Cc1ccc(C(F)(F)F)nn1)C(=O)c1cc2c3c(c(N)nc2cc1F)COC3` [Example 359, 4-amino-7-fluoro-N-methyl-N-((6-(trifluoromethyl)-3-pyridazinyl)methyl)-1,3-dihydrofuro[3,4-c]quinoline-8-carboxamide], the IC50 stood at 0.226 µM in the test on HCT116 MTAP null cells and 10.2 µM with HCT116 WT cells.

Take `CCN(Cc1ccc(C(F)(F)F)cn1)C(=O)c1ccc2nc(N)c3c(c2c1)CO[C@@H]3C` [Example 360, (3R)-4-amino-N-ethyl-3-methyl-N-((5-(trifluoromethyl)-2-pyridinyl)methyl)-1,3-dihydrofuro[3,4-c]quinoline-8-carboxamide]: the figures for the IC50 with HCT116 MTAP null cells and in the test on HCT116 WT cells were 0.053 µM and 3.07 µM, respectively.

For the compound `CCN(Cc1ccc(C(F)(F)F)cn1)C(=O)c1cc2c3c(c(N)nc2cn1)COC3` [Example 361, 4-amino-N-ethyl-N-((5-(trifluoromethyl)-2-pyridinyl)methyl)-1,3-dihydrofuro[3,4-c][1,7]naphthyridine-8-carboxamide], the IC50 in the test on HCT116 MTAP null cells is 0.173 µM; in the test with HCT116 WT cells it was 7.75 µM.

Consider `CCN(Cc1ccc(C(F)(F)F)cn1)C(=O)c1ccc2nc(N)c3c(c2c1)COC3` [Example 362, 4-amino-N-ethyl-N-((5-(trifluoromethyl)-2-pyridinyl)methyl)-1,3-dihydrofuro[3,4-c]quinoline-8-carboxamide], for which the IC50 with HCT116 MTAP null cells amounted to 0.076 µM; in the test with HCT116 WT cells it was 2.21 µM.

As to `CC(C)N(Cc1ccc(C2CC2)nc1)C(=O)c1cc2c3c(c(N)nc2cc1F)COC3` [Example 363, 4-amino-N-((6-cyclopropyl-3-pyridinyl)methyl)-7-fluoro-N-(2-propanyl)-1,3-dihydrofuro[3,4-c]quinoline-8-carboxamide], the results for the IC50 in the test on HCT116 MTAP null cells and in the test with HCT116 WT cells were 0.036 µM and 1.18 µM, respectively.

With `CC(C)N(Cc1ccc(C2CC2)cn1)C(=O)c1ccc2nc(N)c3c(c2c1)COC3` [Example 364, 4-amino-N-((5-cyclopropyl-2-pyridinyl)methyl)-N-(2-propanyl)-1,3-dihydrofuro[3,4-c]quinoline-8-carboxamide], the IC50 in the test with HCT116 MTAP null cells came to 0.058 µM; with HCT116 WT cells, 1.76 µM.

On to `Nc1nc2cnc(C(=O)N(Cc3ccc(C(F)(F)F)cn3)C3CC3)cc2c2c1COC2` [Example 365, 4-amino-N-cyclopropyl-N-((5-(trifluoromethyl)-2-pyridinyl)methyl)-1,3-dihydrofuro[3,4-c][1,7]naphthyridine-8-carboxamide], for which the IC50 was found to be 0.076 µM with HCT116 MTAP null cells and 6.5 µM in the test with HCT116 WT cells.

As to `CC(C)N(Cc1ccc(C(F)(F)F)nn1)C(=O)c1cc2c3c(c(N)nc2cn1)COC3` [Example 366, 4-amino-N-(2-propanyl)-N-((6-(trifluoromethyl)-3-pyridazinyl)methyl)-1,3-dihydrofuro[3,4-c][1,7]naphthyridine-8-carboxamide], the figures for the IC50 in the test on HCT116 MTAP null cells and in the test with HCT116 WT cells were 0.175 µM and 12.5 µM, respectively.

`CN(Cc1ccc(C#N)cn1)C(=O)c1cc2c3c(c(N)nc2cn1)COC3` [Example 367, 4-amino-N-((5-cyano-2-pyridinyl)methyl)-N-methyl-1,3-dihydrofuro[3,4-c][1,7]naphthyridine-8-carboxamide]: the IC50 in the test on HCT116 MTAP null cells is 2.28 µM; with HCT116 WT cells, above 50 µM.

Consider `C[C@H]1OCc2c1c(N)nc1ccc(C(=O)N(Cc3ccc(C4CC4)cn3)C3CC3)cc21` [Example 368, (3R)-4-amino-N-cyclopropyl-N-((5-cyclopropyl-2-pyridinyl)methyl)-3-methyl-1,3-dihydrofuro[3,4-c]quinoline-8-carboxamide], for which the IC50 with HCT116 MTAP null cells stood at 0.065 µM; in the test on HCT116 WT cells, 3.26 µM.

Regarding `Nc1nc2cc(F)c(C(=O)N(Cc3ccc(C(F)(F)F)cn3)C3CC3)cc2c2c1COC2` [Example 369, 4-amino-N-cyclopropyl-7-fluoro-N-((5-(trifluoromethyl)-2-pyridinyl)methyl)-1,3-dihydrofuro[3,4-c]quinoline-8-carboxamide], the IC50 in the test with HCT116 MTAP null cells came to 0.124 µM; with HCT116 WT cells it was 5.04 µM.
